In ChEMBL document CHEMBL1177772, “Design and synthesis of benzoazepin-2-one analogs as allosteric binders targeting the PIF pocket of PDK1” (Bioorg Med Chem Lett, 2010) one finds EC50 data, which are given here for 21 compounds.

A word on the EC50: it is the midpoint of the concentration-response curve.

SMILES strings stand for the structures. Residues, ends and D or L forms follow the SMILES beside them.

The first experiment concerns the target T1, 3-phosphoinositide-dependent protein kinase 1 (Homo sapiens, UniProt O15530).
T1 sequence (O15530 whole entry): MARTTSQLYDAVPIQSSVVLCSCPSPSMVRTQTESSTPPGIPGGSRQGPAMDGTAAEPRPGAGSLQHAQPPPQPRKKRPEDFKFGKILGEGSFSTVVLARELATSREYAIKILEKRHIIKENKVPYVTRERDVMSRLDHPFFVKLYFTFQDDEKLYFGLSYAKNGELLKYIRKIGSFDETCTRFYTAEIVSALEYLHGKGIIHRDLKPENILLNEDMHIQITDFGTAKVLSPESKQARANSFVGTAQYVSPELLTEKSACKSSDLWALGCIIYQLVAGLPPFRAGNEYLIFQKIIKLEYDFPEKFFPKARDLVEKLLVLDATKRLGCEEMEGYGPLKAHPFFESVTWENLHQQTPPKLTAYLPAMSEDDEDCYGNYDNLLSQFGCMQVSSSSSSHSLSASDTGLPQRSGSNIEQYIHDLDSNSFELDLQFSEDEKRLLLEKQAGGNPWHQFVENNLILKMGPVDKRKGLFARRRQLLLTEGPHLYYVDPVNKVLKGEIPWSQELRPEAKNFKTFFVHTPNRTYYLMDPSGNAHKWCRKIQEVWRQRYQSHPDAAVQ
As to the kind of experiment: Displacement of PIFtide from His-tagged PDK1 by HTRF assay.
Conditions: not given; call rule not given here
As to `O=C(O)CN1C(=O)N(Cc2ccccc2)CCc2ccccc21`, the EC50 result is “Not Active”.

In the case of `COC(=O)CN1C(=O)C(NC(=O)c2ccccc2)CCc2ccccc21` (stereo unspecified), the half-maximal effective concentration (EC50) result was “Not Active”. Same read-out and setting: the entry for `O=C(O)CN1C(=O)C(NC(=O)c2ccccc2)CCc2ccccc21` (stereo unspecified) is “Not Active”; for `COC(=O)CN1C(=O)C(OC(=O)c2ccccc2)CCc2ccccc21` (stereo unspecified) it is “Not Active”; for `O=C(O)CN1C(=O)C(OC(=O)c2ccccc2)CCc2ccccc21` (stereo unspecified) it is “Not Active”.

In the case of `O=C(O)CN1C(=O)C(Oc2ccccc2)CCc2ccccc21` (stereo unspecified), the EC50 entry was “Not Active”.

Consider `O=C(O)CN1C(=O)C(NS(=O)(=O)c2ccccc2)CCc2ccccc21` (stereo unspecified), for which the EC50 result is given as “Not Active”. On the same count and under the same terms, the entry for `COC(=O)CN1C(=O)C(Sc2ccccc2)CCc2ccccc21` (stereo unspecified) is “Not Active”. The same measure, in the same setting: the entry for `COC(=O)CN1C(=O)N(Cc2ccccc2)CCc2ccccc21` is “Not Active”; for `COC(=O)CN1C(=O)C(Oc2ccccc2)CCc2ccccc21` (stereo unspecified) it is “Not Active”. On the same count and under the same terms, the entry for `COC(=O)CN1C(=O)C(NS(=O)(=O)c2ccccc2)CCc2ccccc21` (stereo unspecified) is “Not Active”.

`COC(=O)CN1C(=O)C(Nc2ccccc2)CCc2ccccc21` (stereo unspecified): the 50% effective concentration (EC50) result was “Not Active”.

Staying with this experiment, now noted: read-out: EC50.
`O=C(O)CN1C(=O)C(Sc2ccccc2)CCc2ccccc21` (stereo unspecified): the EC50 stood at 101 µM. Regarding `O=C(O)CN1C(=O)C(Sc2ccc(Cl)cc2)CCc2ccccc21` (stereo unspecified), the EC50 was found to be 23 µM. The same measure, in the same setting: the figure for `O=C(O)CN1C(=O)C(Sc2ccc(C(=O)O)cc2)CCc2ccccc21` (stereo unspecified) is 187 µM.

For the compound `COc1ccc(SC2CCc3ccccc3N(CC(=O)O)C2=O)cc1` (stereo unspecified), the EC50 is 53 µM. In the case of `O=C(O)CN1C(=O)C(Nc2ccccc2)CCc2ccccc21` (stereo unspecified), the half-maximal effective concentration (EC50) was 900 µM.

Take `O=C(O)CN1C(=O)C(Sc2c(Cl)cccc2Cl)CCc2ccccc21` (stereo unspecified): the EC50 worked out at 45 µM. `O=C(O)CSC(CC(=O)c1ccc(Cl)cc1)c1ccccc1` (stereo unspecified): the 50% effective concentration (EC50) worked out at 133 µM. As for `CC[C@H](C)[C@H](NC(=O)[C@H](Cc1ccc(O)cc1)NC(=O)[C@H](CC(=O)O)NC(=O)[C@H](Cc1ccccc1)NC(=O)[C@H](CC(=O)O)NC(=O)[C@H](CCCNC(=N)N)NC(=O)[C@H](Cc1ccccc1)NC(=O)[C@H](CCSC)NC(=O)[C@H](CCC(=O)O)NC(=O)[C@@H](N)CCC(N)=O)C(=O)N[C@@H](C)C(=O)N[C@@H](CC(=O)O)C(=O)N[C@@H](Cc1c[nH]c2ccccc12)C(=O)O` (H-QEMFRDFDYIADW-OH), the concentration giving a half-maximal response (EC50) came to 10 µM. On the same count and under the same terms, the figure for `O=C(O)CN1C(=O)C(Sc2ccc(Cl)cc2Cl)CCc2ccccc21` (stereo unspecified) is 75 µM.
